What was measured:
[1] = tested on: wheat powdery mildew; experiment: in vivo test against wheat powdery mildew; design: species or system "MV-4" wheat (host plant); conditions: identical test conditions
Experimental: In vivo tests are carried out against cereals powdery mildew.
In vivo activity is tested against wheat powdery mildew in a phytobox of the Conviron type, at 20° C., a relative humidity of 90% and a light intensity of 9000 lux. As host plant the elite propagating seed grain material of officially qualified "MV-4" wheat species is used. Wheat plants are cultivated in 6 days' periods, in cultivating dishes (diameter 11 cm) containing a 1:1 mixture of sand and perlite. Each dish contains 160 plants; at the beginning of the treatment the plants were 5-6 cm high. High dispersity grade aqueous suspensions or acetonic solutions of the test compound are prepared and 8 ml of each suspension or solution, respectively, are applied onto the plants by means of a spraying apparatus operated by gaseous nitrogen. Inoculation is carried out 24 days after the fungicidal treatment. The test units are placed in three replicates and in random block arrangement in the phytotron. The rate of infectedness is determined on the 8th day after inoculation. Numerical evaluation is accomplished on the basis of the method described by Hinfner and Papp by observing separately 50-60 plants.
The results are expressed as ED50 and ED90 values of the test compounds being calculated from the co-relation of effect and concentration by means of mathematical-biometrical methods. […]

[2] = tested on: bean rust (Uromyces apperdiculatus); experiment: in vivo test on "pinto" bean against bean rust; design: species or system "pinto" bean (host plant); conditions: spray at a concentration of 500 ppm; symptoms 7-8 days after infection
Experimental: A further test is carried out on "pinto" bean species against bean rust (Uromyces apperdiculatus). Into each cultivating dish three seeds are sown in a 1:1:0.035 mixture of sand, perlite and super compost. Two-leave staged bean plants subjected to 7-9 days' glass house pre-cultivation are treated with the test compound and the treated plants are inoculated. The concentration of the spore suspension amounts to 0.1 g/10 ml and 2.5 ml of spore suspension are used for each cultivating dish. After inoculation the plants are incubated at 20° C. under a relative moisture content of 100% for 48 hours. The symptoms manifest themselves 7-8 days after infection. Three replicates are used; untreated control treatment is also carried out and the commercial product "Dithane M 45" serves as reference.

Row | Structure (SMILES) | activity relative to the most efficient novel compounds (products of Examples 7 and 8) [1] | inhibition of bean rust infection [2] [%]
1 | C/C=C/C(=O)Oc1c(C(C)CCCCCC)cc([N+](=O)[O-])cc1[N+](=O)[O-] (stereo not shown) [6-(1-methyl-heptyl-2,4-dinitro-phenyl-crotonate)] | lower activity | 
2 | CCCCNC(=O)ON=C1C(=O)c2ccccc2-c2ccccc21 [Example 7, 9,10-phenanthrene-dione-9-(n-butyl-aminocarbonyl)-oxime] |  | 100
3 | CNC(=O)ON=C1C(=O)c2ccccc2-c2ccccc21 [Example 8, 9,10-Phenanthrene-dione-9-(methylaminocarbonyl)-oxime] |  | 100
4 | CCCCNC(=O)n1c(NC(=O)OC)nc2ccccc21 [Reference compound, methyl-1-(n-butylcarbamoyl)-2-benzimidazole-carbamate] | lower activity | 

— patent US4746678A, “Phenanthrene derivatives” (EGIS Gyoryszergyar, priority 1985, dated 1988)
